{"source": "paper PMC8522722", "about": "“Safety and Pharmacokinetics in Human Volunteers of Taniborbactam (VNRX-5133), a Novel Intravenous β-Lactamase Inhibitor” (Antimicrobial Agents and Chemotherapy, 2021)", "key": {"[1]": {"tested_on": "Pseudomonas aeruginosa isolates", "design": "method as in ref 13, 14 = [13]; 13 Vidales A , Hackel M , Wise M , Sahm D . 2020 . Antimicrobial activity of cefepime in combination with taniborbactam (formerly VNRX-5133) against clinical isolates of Enterobacterales collected fro || [14]; 14 Kalamatas J , Hackel M , Wise M , Sahm D . 2020 . Antimicrobial activity of cefepime in combination with taniborbactam (formerly VNRX-5133) against a 2018–2019 surveillance collection of Pseudomona", "settings": "cited from earlier work"}, "[2]": {"tested_on": "cefepime-resistant β-lactamase-producing pathogens", "design": "method as in ref 15, 16 = [15]; 15 Georgiou P-C , Siopi M , Tsala M , Lagarde C , Kloezen W , Donnelly R , Meletiadis J , Mouton J . 2018 . VNRX-5133, a novel broad-spectrum beta-lactamase inhibitor, enhances the activity of cefepim || [16]; 16 Weiss W , Pulse M , Nguyen P , Valtierra D , Peterson K , Carter K , Pevear D , Burns C , Xerri L . 2018 . Efficacy of cefepime/VNRX-5133, a novel beta-lactamase inhibitor combination, against ceph", "settings": "cited from earlier work"}, "[3]": {"design": "species or system human", "settings": "in vivo", "description": "To assess possible metabolites of taniborbactam, plasma and urine samples were pooled across subjects by time points, processed, and analyzed by ultra-high performance liquid chromatography tandem mass spectrometry with a quadrupole time-of-flight mass spectrometer, for acquisition of high-resolution accurate mass data, in positive mode with electrospray ionization, incorporating in-line UV detection with a photodiode array detector (Waters Acquity UPLC). The acquired chromatographic and mass spectral data were compared to analogous data obtained for the corresponding predose and placebo-dose samples to identify metabolites potentially associated with taniborbactam metabolism. Chromatographic peaks observed to be unique to the samples were subject to investigation by mass spectrometric techniques."}, "[4]": {"assay": "Safety and tolerability, treatment-emergent adverse events, SAD part", "assay_type": "in vivo, human", "protocol": "(§1) Eligible subjects were randomized to receive either taniborbactam or placebo in a 3:1 ratio within dose cohorts in both the SAD and MAD parts of the study. Each dose cohort in the SAD part of the study enrolled 8 subjects, and each dose cohort in the MAD part of the study enrolled 12 subjects. In the SAD part, subjects received 62.5, 125, 250, 500, 1,000, or 1,500 mg taniborbactam as a 2-h intravenous (i.v.) infusion. In the MAD part, subjects received 2-h intravenous i.v. infusions of 250, 500, or 750 mg taniborbactam q8h over 10 days, ending after a final morning dose on day 10 (total of 28 doses).\n(§2) Safety was assessed based on the occurrence of adverse events and evaluation of laboratory tests (chemistry, hematology, urinalysis), physical examination, vital signs, and 12-lead electrocardiograms (ECGs) that were performed throughout the study. Safety was followed through 7 days postdose in the SAD part and followed through 7 days post-last dose in the MAD part."}, "[5]": {"design": "species or system human", "settings": "in vivo", "protocol": "as §1, §2", "remark": "listed apart in the source"}}}
{"smiles": "NCCN[C@H]1CC[C@H](CC(=O)N[C@H]2Cc3cccc(C(=O)O)c3OB2O)CC1", "note": "[Taniborbactam]", "values": [{"measurement": "potentiation of cefepime activity as measured by the MIC90", "setting": "[1]", "result": 4, "unit": "fold"}, {"measurement": "in vivo efficacy of cefepime", "setting": "[2]", "result": "restored the in vivo efficacy of cefepime"}, {"measurement": "biotransformation products with a detectable UV response in pooled plasma samples", "setting": "[3]", "result": "no significant taniborbactam biotransformation products"}, {"measurement": "deaths, serious adverse events, adverse events leading to discontinuation", "setting": "[4]; SAD and MAD parts", "result": "no deaths, serious adverse events, or adverse events leading to discontinuation"}, {"measurement": "Adverse event: Abdominal pain", "setting": "[4]; in vivo", "result": "1 (2.8) No. (%)"}, {"measurement": "Adverse event: Arthralgia", "setting": "[4]; in vivo", "result": "1 (2.8) No. (%)"}, {"measurement": "Adverse event: Back pain", "setting": "[4]; in vivo", "result": "1 (2.8) No. (%)"}, {"measurement": "Adverse event: Headache", "setting": "[4]; in vivo", "result": "1 (2.8) No. (%)"}, {"measurement": "Adverse event: Increased blood CPK", "setting": "[4]; in vivo", "result": "1 (2.8) No. (%)"}, {"measurement": "Adverse event: Increased hepatic enzyme", "setting": "[4]; in vivo", "result": "1 (2.8) No. (%)"}, {"measurement": "Adverse event: Migraine", "setting": "[4]; in vivo", "result": "1 (2.8) No. (%)"}, {"measurement": "Adverse event: Nausea", "setting": "[4]; in vivo", "result": "1 (2.8) No. (%)"}, {"measurement": "Adverse event: Pharyngitis", "setting": "[4]; in vivo", "result": "0 (0.0) No. (%)"}, {"measurement": "Adverse event: Viral URI", "setting": "[4]; in vivo", "result": "1 (2.8) No. (%)"}, {"measurement": "Adverse event: Vomiting", "setting": "[4]; in vivo", "result": "1 (2.8) No. (%)"}, {"measurement": "changes in vital signs, clinical laboratory evaluations, ECGs, physical examinations", "setting": "[4]; in vivo", "result": "no clinically significant changes"}, {"measurement": "subjects with adverse events considered by the investigator to be related to treatment", "setting": "[4]; in vivo", "result": 1, "unit": "subject"}, {"measurement": "subjects with adverse events considered by the investigator to be treatment related", "setting": "[5]", "result": 4, "unit": "subjects"}]}
